In BigSolDB 2.1:

c1ccc2ccccc2c1
solubility (mole fraction) (in DMF, 278.05 K): 0.162 | solubility (mole fraction) (in DMF, 283.05 K): 0.185 | solubility (mole fraction) (in DMF, 288.15 K): 0.215 | solubility (mole fraction) (in DMF, 292.75 K): 0.244 | solubility (mole fraction) (in DMF, 298.05 K): 0.281 | solubility (mole fraction) (in DMF, 303.25 K): 0.307 | solubility (mole fraction) (in DMF, 307.95 K): 0.354 | solubility (mole fraction) (in DMF, 313.15 K): 0.406 | solubility (mole fraction) (in DMF, 318.15 K): 0.465 | solubility (mole fraction) (in NMP, 278.18 K): 0.269 | solubility (mole fraction) (in NMP, 283.25 K): 0.289 | solubility (mole fraction) (in NMP, 288.17 K): 0.307 | solubility (mole fraction) (in NMP, 293.2 K): 0.336 | solubility (mole fraction) (in NMP, 298.16 K): 0.379 | solubility (mole fraction) (in NMP, 303.21 K): 0.41 | solubility (mole fraction) (in NMP, 308.17 K): 0.438 | solubility (mole fraction) (in NMP, 313.16 K): 0.486 | solubility (mole fraction) (in NMP, 318.21 K): 0.535 | solubility (mole fraction) (in NMP, 323.27 K): 0.577 | solubility (mole fraction) (in THF, 278.6 K): 0.241 | solubility (mole fraction) (in THF, 284.35 K): 0.273 | solubility (mole fraction) (in THF, 288.25 K): 0.292 | solubility (mole fraction) (in THF, 293.25 K): 0.324 | solubility (mole fraction) (in THF, 298 K): 0.352 | solubility (mole fraction) (in THF, 303.2 K): 0.385 | solubility (mole fraction) (in THF, 308.19 K): 0.428 | solubility (mole fraction) (in THF, 313.25 K): 0.469 | solubility (mole fraction) (in THF, 318.35 K): 0.51 | solubility (mole fraction) (in THF, 323.2 K): 0.566 | solubility (mole fraction) (in THF, 328.21 K): 0.6 | solubility (mole fraction) (in THF, 333.22 K): 0.629 | solubility (mole fraction) (in acetone, 278.15 K): 0.124 | solubility (mole fraction) (in acetone, 283.15 K): 0.143 | solubility (mole fraction) (in acetone, 288.05 K): 0.171 | solubility (mole fraction) (in acetone, 293.25 K): 0.194 | solubility (mole fraction) (in acetone, 298.35 K): 0.226 | solubility (mole fraction) (in acetone, 303 K): 0.268 | solubility (mole fraction) (in acetone, 308.1 K): 0.307 | solubility (mole fraction) (in acetone, 313.05 K): 0.361 | solubility (mole fraction) (in acetone, 318.15 K): 0.417 | solubility (mole fraction) (in acetone, 323.05 K): 0.477 | solubility (mole fraction) (in ethyl acetate, 278.2 K): 0.174 | solubility (mole fraction) (in ethyl acetate, 283.17 K): 0.191 | solubility (mole fraction) (in ethyl acetate, 288.21 K): 0.217 | solubility (mole fraction) (in ethyl acetate, 293.19 K): 0.233 | solubility (mole fraction) (in ethyl acetate, 298.25 K): 0.276 | solubility (mole fraction) (in ethyl acetate, 303.2 K): 0.314 | solubility (mole fraction) (in ethyl acetate, 308.21 K): 0.357 | solubility (mole fraction) (in ethyl acetate, 313.23 K): 0.406 | solubility (mole fraction) (in ethyl acetate, 318.17 K): 0.465 | solubility (mole fraction) (in ethyl acetate, 323.21 K): 0.526 | solubility (mole fraction) (in isobutyl acetate, 278.18 K): 0.183 | solubility (mole fraction) (in isobutyl acetate, 283.2 K): 0.205 | solubility (mole fraction) (in isobutyl acetate, 288.22 K): 0.232 | solubility (mole fraction) (in isobutyl acetate, 293.23 K): 0.259 | solubility (mole fraction) (in isobutyl acetate, 298.19 K): 0.299 | solubility (mole fraction) (in isobutyl acetate, 303.23 K): 0.335 | solubility (mole fraction) (in isobutyl acetate, 308.45 K): 0.387 | solubility (mole fraction) (in isobutyl acetate, 313.2 K): 0.433 | solubility (mole fraction) (in isobutyl acetate, 318.17 K): 0.483 | solubility (mole fraction) (in isobutyl acetate, 323.21 K): 0.539 | solubility (mole fraction) (in n-butyric acid, 278.17 K): 0.0834 | solubility (mole fraction) (in n-butyric acid, 283.27 K): 0.0952 | solubility (mole fraction) (in n-butyric acid, 288.45 K): 0.113 | solubility (mole fraction) (in n-butyric acid, 293.2 K): 0.129 | solubility (mole fraction) (in n-butyric acid, 298.26 K): 0.154 | solubility (mole fraction) (in n-butyric acid, 303.22 K): 0.179 | solubility (mole fraction) (in n-butyric acid, 308.2 K): 0.215 | solubility (mole fraction) (in n-butyric acid, 313.3 K): 0.253 | solubility (mole fraction) (in n-butyric acid, 318.19 K): 0.292 | solubility (mole fraction) (in n-butyric acid, 323.28 K): 0.34
